This is an account of results in patent US8618080B2, “Immunomodulatory compounds and treatment of diseases related to an overproduction of inflammatory cytokines” (OM Pharma, priority 2006, dated 2013).

The test system of data set [1] is LACK-sensitized and challenged mice. Briefly: LACK-induced allergic asthma model, therapeutic i.p. treatment. Format: in vivo. On the procedure:
The main differences compared to the previous (part a) protocol are: • Mice were treated with OM-197-MP-AC i.p. only on days 15, 17 and 19 (i.e. at least 1 week after the second sensitization) at the dose of 1 mg/Kg (20 μg per mouse). • The lung cytokines measured by multiplex analysis using FACSArray were IL-4, IL-5, IL-13, IFN-γ, and IL-10. Results: Total Cell Number and Eosinophils in BAL:
Two days after the last aerosol, mice were sacrificed and BAL cells harvested.
In order to further characterize the immune status of mice after therapeutic treatment with OM-197-MP-AC, we analyzed LACK-specific IgE in sera of treated mice and in those of untreated mice by ELISA. Whereas LACK-specific IgE levels increased 7-fold upon exposition to LACK aerosols, sera of OM-197-MP-AC-treated mice contained 2-fold less (p<0.05) LACK-specific IgE compared to untreated LACK challenged mice.
FIG. 8: Mice were therapeutically treated three times as described in the method section, lavages were performed in individual mice bled with a canula inserted into their trachea. Lungs were washed 3 times with 1 ml of warmed PBS. Cells were washed with PBS, resuspended in 300 μl, and counted using a Burker-Türk chamber. For differential BAL cell counts, cytospin preparations were made and stained with Wright/Giemsa coloration. The groups tested were: LACK-sensitized and PBS-challenged wt mice (Control), LACK-sensitized and challenged wt mice (Asthma), and OM-197-MP-AC-treated wt mice (OM-197). The total cell number in BAL was determined by microscopic examination of cytospin preparations stained with Wright/Giemsa coloration. The dotted line indicates throughout the graph the value obtained in untreated asthmatic animals.
FIG. 9: Percentage of eosinophils in BAL analyzed by microscopic examination of cytospin preparations stained with Wright/Giemsa coloration. Mice were therapeutically treated three times as described in the method section, cells from BAL were harvested as explained in FIG. 8. The (therapeutic) groups studied are the same as those used in FIG. 8. The dotted line indicates throughout the graph the value obtained in untreated asthmatic animals.
FIG. 10: To analyze lung cytokine contents, lungs were harvested and left lungs were used to prepare protein extracts. 400 μl were recovered for each left lung. Cytokines were measured by multiplex analysis using FACSArray, and results are given in pg/ml. The (therapeutic) groups studied are the same as those used in FIGS. 8 and 9. The dotted lines indicate throughout the graphs the values obtained in untreated asthmatic animals.

The test system of data set [2] is Limulus Amoebocyte Lysate. Briefly: Limulus Amoebocyte Lysate chromogenic test (LAL endotoxicity). Format: biochemical. As to the method:
Endotoxicity was determined first for OM-197-MP-AC and for OM-294-DP by the Limulus Amoebocyte Lysate chromogenic test (Chromogenic-LAL of Bio-Whittaker, kit n° 50-65OU).
The enzymatic reaction is carried out at 37° C. and the formation of the chromogen over time is measured at 405 nm. The time necessary to reach 0.2 units of D.O. is recorded and the endotoxic activity calculated in relation to a LPS standard (standard curve). The results are expressed in EU (Endotoxin Unit) in relation to a standardized preparation of E. coli LPS (1 EU corresponds to 0.08 ng equivalent LPS).

Data set [3] is described as follows: Pyrogenicity in the rabbit. The class given is in vivo, New Zealand white rabbits. Particulars: i.v., temperature increase. On the procedure:
3 New Zealand white rabbits/group were injected i.v. with either OM-197-MP-AC or OM-294-DP at different doses (according to the European Pharmacopoeia 2001, Method 2.6.8).
Animals: Readout: temperature increase

Data set [4] concerns NOD mice. Kind of data set: Occurrence of diabetes in Non Obese Diabetic (NOD) mice. Format: in vivo. Particulars: for Occurrence of diabetes versus control (Kaplan-Meier, logrank): 10 weeks. As to the method: Group of 10 female 6-week old NOD mice were treated during 10 weeks with either 0.01, 0.1, and 1 mg/kg of OM-197-MP-AC. A group of 6 female MOD mice receiving 200 μl PBS i.p. 3 times a week was used as control.
In this series of experiments, the treatment was continued until the mice have reached 16 weeks of age. This is the point in time when control animals start developing overt diabetes.
Results in terms of diabetes incidence were compared to those obtained in control animals. Diabetes was checked once a week by glucosuria testing, using test strips (Glukotest®, Roche, France), twice a week when diabetes appeared. Diabetes was confirmed by evaluating glycemia (>3 mg/ml) with test strips (Glucotrend®).
The occurrence of diabetes in the different experimental groups is plotted (see FIG. 15) using the Kaplan-Meier method, i.e. non parametric cumulative survival plot. The statistical comparison between the curves is performed using the logrank (Mantel-Cox) test which provided the corresponding χ2 values.
FIG. 15: Occurrence of diabetes in NOD mice. Mice were treated i.p. with either PBS (6 animals), or the 3 indicated doses of OM-197-MP-AC (3 groups of 10 animals). Diabetes was checked once a week by glucosuria testing (Glukotest), and twice a week when diabetes appeared. Diabetes was confirmed by evaluating glycemia (>3 mg/ml) with test strips (Glucotrend®). The occurrence of diabetes in the different experimental groups is plotted (see FIG. 15) using the Kaplan-Meier method, i.e. non parametric cumulative survival plot. The statistical comparison between the curves is performed using the logrank (Mantel-Cox) test which provided the corresponding χ2 values: OM-197-MP-AC 1 mg/kg p=0.321; 0.1 mg/kg=0.0543

Setting [5] is: 1 mg/Kg i.p. therapeutic, versus untreated mice.

Where only a bound is given, the exact number is not on record here.

As to `CCCCCCCCCCCC(=O)O[C@H](CCCCCCCCCCC)CC(=O)N[C@@H](CCOP(=O)(O)O)C(=O)NCCC[C@H](COC(=O)CCCCCN)NC(=O)C[C@H](O)CCCCCCCCCCC` [OM-197-MP-AC, (3S, 9R)-3-[(R)-3-dodecanoyloxytetradecanoylamino]-4-oxo-5-aza-9-[(R)-3-hydroxytetradecanoylamino]-decan-1, 10-diol 1-dihydrogenophosphate 10-(6-aminohexanoate)], the “Eosinophils in BAL, less than untreated mice” value in data set [1] (1 mg/Kg i.p. on days 15, 17, 19 (therapeutic)) is 40-45 fold less. Also, the “BAL cell recruitment impaired” value in data set [1] (1 mg/Kg i.p. on days 15, 17, 19 (therapeutic), versus untreated mice) was found to be 90%. Besides, in data set [1] (1 mg/Kg i.p. therapeutic), the “Lung IFN-γ levels, treated versus untreated mice” value was “reduced” and the “Lung IL-10 amounts upon treatment” value is “not significantly increased”. Moreover, the “LACK-specific IgE in sera, less than untreated LACK challenged mice” value in data set [1] (1 mg/Kg i.p. therapeutic, ELISA) worked out at 2 fold less. In data set [1] (setting [5]), the “Lung IL-4 levels reduced” value came out at 90%, the “Lung IL-5 amounts reduced” value turned out to be 70% and the “Lung IL-13 amounts reduced” value is 85%. Moreover, the “Limulus activity in the chromogenic LAL assay” value in data set [2] is recorded as “very little or no Limulus activity”. In addition, the Pyrogenic threshold in data set [3] is recorded as > 0.9 mg/kg. Moreover, the “Occurrence of diabetes versus control (Kaplan-Meier, logrank)” value in data set [4] (0.1 mg/kg i.p.) is reported as “positive trend”. The Animals exhibiting diabetes in data set [4] (0.3 mg/kg, week 27, another experiment) was 27%. Also, the “Occurrence of diabetes versus control (Kaplan-Meier, logrank)” value in data set [4] (1 mg/kg i.p.) is given as “significantly active”.
